≈ marks a conversion by molar mass, not a printed value. Like-named read-outs stand apart in the source and are kept apart here.
How the values were obtained:
[1] = assay type: physicochemical
Experimental: (§1) The SSF was prepared following the instructions included in the article published by Minekus et al. in 2014 in the journal Food & Function (Minekus M, Alminger M, Alvito P, et al. A standardized static in vitro digestion method suitable for food - an international consensus. Food & Funct. 2014. 5:1113-1124). In detail, the SSF was prepared by mixing the following saline solutions: • KCI at the concentration of 15.1 mmol/l, • KH2PO4 at the concentration of 3.7 mmol/l, • NaHCO3 at the concentration of 13.6 mmol/l, • MgCl2(H2O)6 at the concentration of 0.15 mmol/l, and • (NH4)2CO3 at the concentration of 0.06 mmol/l. […]
(§2) Each sample as illustrated below was analysed in triplicate and the concentration of curcumin and resveratrol was calculated on the basis of two calibration curves previously constructed using the curcumin and resveratrol supplied as reference substance and dissolved in 96% ethanol. For processing the calibration curves, the curcumin and resveratrol solutions (prepared by dissolving an exactly weighed quantity of substance in 96% ethanol) were prepared and subjected to analysis in a concentration range, from 0.5 to 200 µg/ml . […]

physchem [2] = assay type: physicochemical; conditions: maltitol 1.35 g, curcumin 50 mg, resveratrol 50 mg, extraction with 6 ml SSF at room temperature
Experimental: as §1, §2

physchem [3] = assay type: physicochemical; conditions: dmem medium, mean of technical triplicates, read-out: Concentration in DMEM medium
Experimental: (§3) The chromatography analyses were performed using a HPLC-DAD Agilent 1100 system (Agilent, Waldbronn, Germany), comprising a quaternary pump, self-sampler with thermostat equipped with a 100 µl injection loop, column thermostat, DAD Agilent 1100 detector (Agilent, Waldbronn, Germany). For the system control and data analysis the Chemstation software was used. The separation of the compounds was obtained with a Gemini C18 110A analytical column (150 mm × 2 mm; particle diameter 5 µm), connected to a suitable pre-column, both purchased from Phenomenex, Torrance, CA, USA. […]
as §2
Subsequently, the cell pellet was re-suspended in 24 ml of DMEM medium and the sample was centrifuged at 6000 rpm for 10 minutes to remove the insoluble part. […] The quantities of the compounds added to the medium and were selected on the basis of the first experimental phase. […]

HaCat cells = assay type: in vitro ADME, Human; conditions: HaCat cells incubated 120 minutes at 37°C, mean of technical triplicates
Experimental: as §3, §2
The cells were detached mechanically using a scraper in 2 ml of PBS and transferred into a 15 ml Falcon test tube for being centrifuged at 1500 rpm for 5 minutes. […] The results obtained, reported in Table 4, were expressed as a mean of the technical triplicates. […]

| solubility in SSF [1] | Concentration (physchem [2]; SAMPLE 2: 2.8528 g dark chocolate, ethanol 99.9 µL) [ng/mL] | solubility (physchem [2]; simulated salivary fluid, SAMPLE 1: 2.8528 g dark chocolate, ethanol 199.8 µL, read-out: Concentration) [µg/mL] | solubility (physchem [3]; no matrix, 167 mg curcumin and 167 mg resveratrol in 20 ml DMEM, filtered) [µg/mL] | solubility (physchem [3]; with chocolate matrix: 200 mg curcumin, 200 mg resveratrol, 5.4 g maltitol, 12 g dark chocolate, 799.2 µl ethanol, hexane-defatted, re-suspended in 24 ml DMEM) [µg/mL] | Concentration in cell pellet (absorption by the cells) (HaCat cells; no matrix, pellet re-suspended in 500 µl 96° ethanol) [ng/mL] | Concentration in cell pellet (absorption by the cells) (HaCat cells; with chocolate matrix, maltitol and ethanol) [ng/mL] | SMILES |
| --- | --- | --- | --- | --- | --- | --- | --- |
| substantial insolubility |  |  |  |  |  |  | COc1cc(/C=C/C(=O)CC(=O)/C=C/c2ccc(O)c(OC)c2)ccc1O [Curcumin] |
|  | 82470 | 156 (≈ 683 µM) | 31.8 (≈ 139 µM) | 125 (≈ 547 µM) | 0 | 3660 | Oc1ccc(/C=C/c2cc(O)cc(O)c2)cc1 [Resveratrol, 3,5,4'-trihydroxy-trans-stilbene] |
